The values below come from US4000985A, “Azo dyes having a high solubility in petroleum fuels” (Morton-Norwich Products, Inc., priority 1975, dated 1977).

Series [1] in a line: Physical state of the isolated dye. In kind it is physicochemical. As to conditions: after isolation according to Procedure B. From the text:
alternatively, the crude liquid dye may be taken up with a volatile solvent and the solvent removed during the drying process to yield a non-volatile liquid colorant.

Series [2] can be described thus: Rate and extent of dissolution in No. 1 and No. 2 Heating Oils at 25° C. (colorimetric). The class given is physicochemical. As to conditions: for Percent Dissolved: 25° C. How it is done: The solubility properties of each of the dyes of Examples 16-41 were evaluated in the fuels No. 1 and No. 2 Heating Oils, respectively. The procedure was as follows:
Where the dyes are solid dyes, excess of pulverized solid dye, far beyond that which would dissolve, i.e., 30 to 35% dye, was added to the respective oils at 25° C. and agitated at constant speed. Samples were removed at 1, 10 and 20 minute intervals, filtered, and the amount of dissolved dye determined colorimetrically.
The tarry non-solid dyes were charged in proportions of 50-60% dye to 50-40% oil rather than 30-35% used for the solid dyes. In fact, it was very difficult to stir the tarry dye-fuel oil mixture at a dye concentration of 50%. Samples for these dyes were taken after 2 minutes. The longer initial time for the tarry dyes was to permit reasonable contact between solvent and the viscous, condensed dye.

The mark [3] stands for this setting: No. 1 Fuel Oil, 1 Minute, aminoazobenzene dyes (Table 4).
Setting [4] is: No. 1 Fuel Oil, 10 Minutes, aminoazobenzene dyes (Table 4).
The mark [5] stands for this setting: No. 1 Fuel Oil, 20 Minutes, aminoazobenzene dyes (Table 4).
Where [6] appears, read: No. 2 Fuel Oil, 1 Minute, aminoazobenzene dyes (Table 5).
The mark [7] stands for this setting: No. 2 Fuel Oil, 10 Minutes, aminoazobenzene dyes (Table 5).
[8] abbreviates: No. 2 Fuel Oil, 20 Minutes, aminoazobenzene dyes (Table 5).
The mark [9] stands for this setting: No. 1 Fuel Oil, 1 Minute, aminoazotoluene dyes (Table 6).
Where [10] appears, read: No. 1 Fuel Oil, 10 Minutes, aminoazotoluene dyes (Table 6).
The mark [11] stands for this setting: No. 1 Fuel Oil, 20 Minutes, aminoazotoluene dyes (Table 6).
Where [12] appears, read: No. 2 Fuel Oil, 1 Minute, aminoazotoluene dyes (Table 7).
Where [13] appears, read: No. 2 Fuel Oil, 10 Minutes, aminoazotoluene dyes (Table 7).
The mark [14] stands for this setting: No. 2 Fuel Oil, 20 Minutes, aminoazotoluene dyes (Table 7).

With `CCNc1ccc2ccccc2c1N=Nc1ccc(N=Nc2ccccc2)cc1` [Example 16], in series [1], the “Physical State of Dye” value is given as “Solid”. Also, the “Percent Dissolved” value in series [2] (setting [3]) came to 1.05%; in series [2] (setting [4]) it was 1.36%; in series [2] (setting [5]) it was 1.48%; in series [2] (setting [6]), 1.49%; in series [2] (setting [7]) it was 1.64%; in series [2] (setting [8]) it was 1.78%.

For the compound `CCCCNc1ccc2ccccc2c1N=Nc1ccc(N=Nc2ccccc2)cc1` [Example 17], in series [1], the “Physical State of Dye” value is reported as “Solid”. Also, the “Percent Dissolved” value came to 1.99% in series [2] (setting [3]); 1.79% in series [2] (setting [4]); 1.57% in series [2] (setting [5]); 1.83% in series [2] (setting [6]); 2.03% in series [2] (setting [7]); 2.12% in series [2] (setting [8]).

With `COCCCNc1ccc2ccccc2c1N=Nc1ccc(N=Nc2ccccc2)cc1` [Example 18], the “Physical State of Dye” value in series [1] is recorded as “Solid”. Further, the “Percent Dissolved” value in series [2] (setting [3]) is listed as 2.02%; in series [2] (setting [4]), 3.15%; in series [2] (setting [5]), 3.57%; in series [2] (setting [6]), 0.66%; in series [2] (setting [7]) it was 0.68%; in series [2] (setting [8]) it was 0.73%.

Take `OCCOCCNc1ccc2ccccc2c1N=Nc1ccc(N=Nc2ccccc2)cc1` [Example 19]: in series [1], the “Physical State of Dye” value was “Solid”. Further, the “Percent Dissolved” value in series [2] (setting [3]) is listed as 0.06%; in series [2] (setting [4]) it was 0.06%; in series [2] (setting [5]), 0.06%; in series [2] (setting [6]) it was 0.14%; in series [2] (setting [7]) it was 0.17%; in series [2] (setting [8]), 0.21%.

`CCCCCCNc1ccc2ccccc2c1N=Nc1ccc(N=Nc2ccccc2)cc1` [Example 20]: the “Physical State of Dye” value in series [1] is listed as “Solid”. Also, the “Percent Dissolved” value in series [2] (setting [3]) is listed as 4.65%; in series [2] (setting [4]) it was 4.47%; in series [2] (setting [5]), 4.35%; in series [2] (setting [6]) it was 5.12%; in series [2] (setting [7]) it was 5.12%; in series [2] (setting [8]) it was 5.27%.

Regarding `c1ccc(N=Nc2ccc(N=Nc3c(NC4CCCCC4)ccc4ccccc34)cc2)cc1` [Example 21], the “Physical State of Dye” value in series [1] was “Solid”. Besides, the “Percent Dissolved” value in series [2] (setting [3]) stood at 4.01%; in series [2] (setting [4]), 2.25%; in series [2] (setting [5]) it was 2.30%; in series [2] (setting [6]), 3.10%; in series [2] (setting [7]), 3.10%; in series [2] (setting [8]), 3.21%.

For the compound `CCOCCOCCCNc1ccc2ccccc2c1N=Nc1ccc(N=Nc2ccccc2)cc1` [Example 22], the “Percent Dissolved” value in series [2] (setting [3]) was determined as 3.68%; in series [2] (setting [5]), 3.68%; in series [2] (setting [6]), 0.57%; in series [2] (setting [7]), 0.58%; in series [2] (setting [8]), 0.61%. For the same compound, the “solubility in fuel oils (in words)” value in series [2] (No. 1 and No. 2 fuel oils) is listed as “low solubility in both fuels much like that of a solid dye”.

Regarding `CCCCCCCNc1ccc2ccccc2c1N=Nc1ccc(N=Nc2ccccc2)cc1` [Example 23], the “Physical State of Dye” value in series [1] is “Solid”. In addition, the “Percent Dissolved” value was found to be 4.92% in series [2] (setting [3]); 7.83% in series [2] (setting [4]); 7.56% in series [2] (setting [5]); 7.11% in series [2] (setting [6]); 8.10% in series [2] (setting [7]); 8.90% in series [2] (setting [8]).

In the case of `CCCCCCCCNc1ccc2ccccc2c1N=Nc1ccc(N=Nc2ccccc2)cc1` [Example 24], the “Physical State of Dye” value in series [1] is “Solid”. Besides, the “Percent Dissolved” value in series [2] (setting [3]) was determined as 12.05%; in series [2] (setting [4]) it was 7.26%; in series [2] (setting [5]), 5.96%; in series [2] (setting [6]), 5.48%; in series [2] (setting [7]) it was 6.25%; in series [2] (setting [8]), 6.25%.

`CCCCCCCCCCNc1ccc2ccccc2c1N=Nc1ccc(N=Nc2ccccc2)cc1` [Example 26]: the “Physical State of Dye” value in series [1] is “Solid”. Also, the “Percent Dissolved” value in series [2] (setting [3]) is on record as 4.97%; in series [2] (setting [4]), 5.12%; in series [2] (setting [5]) it was 5.63%; in series [2] (setting [6]), 6.36%; in series [2] (setting [7]) it was 7.25%; in series [2] (setting [8]), 8.14%.

Take `CCCCCCCCCCCCNc1ccc2ccccc2c1N=Nc1ccc(N=Nc2ccccc2)cc1` [Example 28]: the “Physical State of Dye” value in series [1] is “Solid”. Further, the “Percent Dissolved” value was determined as 2.85% in series [2] (setting [3]); 4.60% in series [2] (setting [4]); 5.38% in series [2] (setting [5]); 7.46% in series [2] (setting [6]); 8.17% in series [2] (setting [7]); 9.06% in series [2] (setting [8]).

With `CCNc1ccc2ccccc2c1N=Nc1ccc(N=Nc2ccccc2C)cc1C` [Example 29], in series [1], the “Physical State of Dye” value is “Solid”. Also, the “Percent Dissolved” value in series [2] (setting [9]) is on record as 0.24%; in series [2] (setting [10]), 0.32%; in series [2] (setting [11]), 0.37%; in series [2] (setting [12]), 0.29%; in series [2] (setting [13]), 0.37%; in series [2] (setting [14]), 0.39%.

Turning to `CCCCNc1ccc2ccccc2c1N=Nc1ccc(N=Nc2ccccc2C)cc1C` [Example 30], in series [1], the “Physical State of Dye” value was “Solid”. The “Percent Dissolved” value amounted to 0.19% in series [2] (setting [9]); 0.26% in series [2] (setting [10]); 0.26% in series [2] (setting [11]); 0.27% in series [2] (setting [12]); 0.29% in series [2] (setting [13]); 0.35% in series [2] (setting [14]).

As for `COCCCNc1ccc2ccccc2c1N=Nc1ccc(N=Nc2ccccc2C)cc1C` [Example 31], in series [1], the “Physical State of Dye” value is reported as “Solid”. Moreover, the “Percent Dissolved” value in series [2] (setting [9]) is listed as 0.58%; in series [2] (setting [10]) it was 0.57%; in series [2] (setting [11]) it was 0.58%; in series [2] (setting [12]), 2.96%; in series [2] (setting [13]), 4.21%; in series [2] (setting [14]), 4.96%.

For `Cc1ccccc1N=Nc1ccc(N=Nc2c(NCCOCCO)ccc3ccccc23)c(C)c1` [Example 32], the “Physical State of Dye” value in series [1] is “Solid”. Besides, the “Percent Dissolved” value in series [2] (setting [9]) is recorded as 0.09%; in series [2] (setting [10]) it was 0.12%; in series [2] (setting [11]), 0.13%; in series [2] (setting [12]) it was 0.20%; in series [2] (setting [13]), 0.15%; in series [2] (setting [14]), 0.15%.

In the case of `CCCCCCNc1ccc2ccccc2c1N=Nc1ccc(N=Nc2ccccc2C)cc1C` [Example 33], the “Physical State of Dye” value in series [1] is “Solid”. Besides, the “Percent Dissolved” value in series [2] (setting [9]) turned out to be 1.31%; in series [2] (setting [10]) it was 1.28%; in series [2] (setting [11]), 1.27%; in series [2] (setting [12]), 0.93%; in series [2] (setting [13]), 1.01%; in series [2] (setting [14]) it was 1.11%.

As to `Cc1ccccc1N=Nc1ccc(N=Nc2c(NC3CCCCC3)ccc3ccccc23)c(C)c1` [Example 34], the “Physical State of Dye” value in series [1] is reported as “Solid”. Further, the “Percent Dissolved” value in series [2] (setting [9]) stood at 0.82%; in series [2] (setting [10]) it was 0.87%; in series [2] (setting [11]) it was 0.94%; in series [2] (setting [12]) it was 0.99%; in series [2] (setting [13]) it was 1.05%; in series [2] (setting [14]) it was 1.09%.

Turning to `CCOCCOCCCNc1ccc2ccccc2c1N=Nc1ccc(N=Nc2ccccc2C)cc1C` [Example 35], the “Physical State of Dye” value in series [1] is “Solid”. The “Percent Dissolved” value in series [2] (setting [9]) stood at 5.33%; in series [2] (setting [10]), 6.23%; in series [2] (setting [11]) it was 7.40%; in series [2] (setting [12]), 3.70%; in series [2] (setting [14]), 3.97%.

With `CCCCCCCNc1ccc2ccccc2c1N=Nc1ccc(N=Nc2ccccc2C)cc1C` [Example 36], the “Physical State of Dye” value in series [1] is “Solid”. Moreover, the “Percent Dissolved” value is recorded as 1.42% in series [2] (setting [9]); 1.56% in series [2] (setting [10]); 1.65% in series [2] (setting [11]); 1.77% in series [2] (setting [12]); 2.27% in series [2] (setting [13]); 2.59% in series [2] (setting [14]).

In the case of `CCCCCCCCNc1ccc2ccccc2c1N=Nc1ccc(N=Nc2ccccc2C)cc1C` [Example 37], the “Physical State of Dye” value in series [1] is “Solid”. Moreover, the “Percent Dissolved” value in series [2] (setting [9]) is recorded as 1.38%; in series [2] (setting [10]), 1.39%; in series [2] (setting [11]), 1.78%; in series [2] (setting [12]), 2.26%; in series [2] (setting [13]) it was 2.89%; in series [2] (setting [14]), 2.69%.

As to `CCCCCCCCCCNc1ccc2ccccc2c1N=Nc1ccc(N=Nc2ccccc2C)cc1C` [Example 39], the “Physical State of Dye” value in series [1] is reported as “Solid”. Further, the “Percent Dissolved” value in series [2] (setting [9]) was 1.09%; in series [2] (setting [10]) it was 1.13%; in series [2] (setting [11]), 1.14%; in series [2] (setting [12]) it was 1.30%; in series [2] (setting [13]), 1.37%; in series [2] (setting [14]), 1.48%.
